# Assay results taken from patent US20240059655A1, “HETEROCYCLIC G-PROTEIN-COUPLED RECEPTOR 52 (GPR52) AGONISTS” (Board of Regents, The University of Texas System, priority 2020, published 2024).
# “Also recorded” adds a separate entry of the source.
# Experiments:
# C57/BL6 mice = assay: Locomotor activity and amphetamine-induced hyperlocomotion in mice; conditions: P<0.05 vs vehicle; for AMPH-induced horizontal activity, first 30 min after AMPH: AMPH 3 mg/kg IP
# hERG potassium channel = hERG potassium channel (Homo sapiens (Human), UniProt Q12809); assay: NIMH-PDSP broad-panel counter screening (binding)
# Sequence of hERG potassium channel (Q12809 whole entry): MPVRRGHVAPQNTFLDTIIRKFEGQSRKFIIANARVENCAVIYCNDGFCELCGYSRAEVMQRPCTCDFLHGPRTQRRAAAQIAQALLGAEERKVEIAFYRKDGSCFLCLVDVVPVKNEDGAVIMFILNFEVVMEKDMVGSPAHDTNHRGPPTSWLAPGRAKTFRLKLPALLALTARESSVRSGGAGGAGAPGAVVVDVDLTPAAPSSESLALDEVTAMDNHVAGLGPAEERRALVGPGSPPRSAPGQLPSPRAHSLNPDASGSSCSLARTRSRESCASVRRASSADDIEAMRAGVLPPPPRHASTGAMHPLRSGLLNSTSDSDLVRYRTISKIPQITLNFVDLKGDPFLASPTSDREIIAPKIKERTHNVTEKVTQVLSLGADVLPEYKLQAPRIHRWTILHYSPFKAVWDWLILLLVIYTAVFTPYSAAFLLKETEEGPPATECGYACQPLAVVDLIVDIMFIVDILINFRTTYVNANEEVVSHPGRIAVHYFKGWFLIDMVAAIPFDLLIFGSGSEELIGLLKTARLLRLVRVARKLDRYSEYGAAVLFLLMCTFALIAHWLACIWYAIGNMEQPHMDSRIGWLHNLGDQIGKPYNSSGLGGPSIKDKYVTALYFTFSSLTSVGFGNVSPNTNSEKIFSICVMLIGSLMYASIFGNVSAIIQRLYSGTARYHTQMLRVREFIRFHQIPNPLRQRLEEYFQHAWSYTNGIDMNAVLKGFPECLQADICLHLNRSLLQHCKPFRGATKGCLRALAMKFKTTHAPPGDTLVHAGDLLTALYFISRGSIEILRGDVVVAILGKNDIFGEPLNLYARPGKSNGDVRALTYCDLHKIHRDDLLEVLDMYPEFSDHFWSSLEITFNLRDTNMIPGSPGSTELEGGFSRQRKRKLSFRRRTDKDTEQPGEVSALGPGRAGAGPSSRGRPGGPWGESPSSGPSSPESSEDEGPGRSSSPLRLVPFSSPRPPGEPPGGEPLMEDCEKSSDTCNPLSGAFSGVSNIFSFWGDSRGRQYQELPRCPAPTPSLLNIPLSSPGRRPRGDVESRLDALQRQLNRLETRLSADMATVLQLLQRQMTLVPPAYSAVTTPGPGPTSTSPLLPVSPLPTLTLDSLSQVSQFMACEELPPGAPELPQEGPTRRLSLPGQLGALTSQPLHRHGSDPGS
# 5-HT2C = 5-HT2C (Homo sapiens (Human), UniProt P28335); assay: NIMH-PDSP broad-panel counter screening (binding)
# Sequence of 5-HT2C (P28335 33-458, species assumed): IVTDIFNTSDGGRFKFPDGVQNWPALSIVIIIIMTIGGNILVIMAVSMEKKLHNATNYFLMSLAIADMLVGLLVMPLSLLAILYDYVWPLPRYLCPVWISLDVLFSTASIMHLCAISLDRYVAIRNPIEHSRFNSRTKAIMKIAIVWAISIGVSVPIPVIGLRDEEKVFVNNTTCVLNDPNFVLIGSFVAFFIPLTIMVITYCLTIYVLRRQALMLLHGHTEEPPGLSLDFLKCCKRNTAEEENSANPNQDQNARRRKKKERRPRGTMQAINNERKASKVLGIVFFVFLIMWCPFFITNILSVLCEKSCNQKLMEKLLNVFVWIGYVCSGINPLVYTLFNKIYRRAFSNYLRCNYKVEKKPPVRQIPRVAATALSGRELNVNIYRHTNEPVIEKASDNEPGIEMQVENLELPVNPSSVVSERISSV
# In vivo PK in rats = conditions: rat; for AUC(0-inf): mean ± SEM
# Procedure: In Vivo PK and Brain Permeability Studies. […] 100 μL of blood (yielding ˜50 μL of plasma) samples are taken from the animal's jugular vein and placed into micro K2EDTA tubes. Blood samples were placed on ice and centrifuged at 8000 rpm for 5 min at 4° C. to generate plasma sample within 0.5 h of collection. Brain samples were collected at 0.25 and 1 h post-dosing. All samples were stored at −20° C. […] The Sundia animal facility is approved with yearly inspection by the Shanghai Laboratory Animal Management Committee. All treatment assignments were blinded to investigators who performed PK assays and end point statistical analyses. […] The peak concentration (Cmax) was directly obtained by visual inspection of the plasma concentration-time profile. The elimination rate constant (λ) was obtained by the least-squares fitted terminal log-linear portion of the slope of the plasma concentration-time profile. […] The area under the plasma concentration-time curve from 0 to time t (AUC0-t) was evaluated using the linear trapezoidal rule and further extrapolated to infinity (AUC0-∞) according to the following equation: AUC0-∞=AUC0-t+Clast/λ. The pharmacokinetic parameters were presented as mean±SEM.
# GABAA = assay: NIMH-PDSP broad-panel counter screening (binding); conditions: mean percent inhibition of binding
# [1] = system: HEK293 cells lacking GPR52; assay: cAMP Glosensor control in HEK293 cells lacking GPR52 (empty vector); conditions: HEK293 cells with empty vector, 0.1 nM-10 μM
# human GPR52 = human GPR52 (Homo sapiens (Human), UniProt Q9Y2T5); assay: Glosensor cAMP assay in HEK293 cells transiently expressing human GPR52; type: cell-based; conditions: relative to compound 4 as 100% and 0.5% DMSO as 0%, mean ± SEM, "—" not detected
# Sequence of human GPR52 (Q9Y2T5 whole entry): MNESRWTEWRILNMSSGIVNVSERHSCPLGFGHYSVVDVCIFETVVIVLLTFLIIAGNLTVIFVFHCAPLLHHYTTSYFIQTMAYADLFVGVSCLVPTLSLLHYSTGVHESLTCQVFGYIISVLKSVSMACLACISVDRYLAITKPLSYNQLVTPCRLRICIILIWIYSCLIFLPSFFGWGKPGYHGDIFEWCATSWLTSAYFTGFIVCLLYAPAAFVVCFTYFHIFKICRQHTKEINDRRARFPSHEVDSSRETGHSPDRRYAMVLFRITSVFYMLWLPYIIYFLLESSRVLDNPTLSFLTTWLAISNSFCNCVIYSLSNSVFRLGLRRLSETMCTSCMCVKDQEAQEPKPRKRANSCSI
# [2] = Brain permeability in rats; type: in vivo; conditions: male, Sprague-Dawley, brain/plasma, rat, IV 10 mg/kg, read-out: Brain/Plasma Ratio
# Procedure: In Vivo PK and Brain Permeability Studies. Male Sprague-Dawley rats (n=3 per treatment group; […] Rats were randomly assigned to treatment groups. […] The rat was restrained manually at the designated time points (0.08, 0.25, 0.5, 1.0, 2.0, 4.0, 8.0, and 24 h post-dosing for IV; 0.25, 0.5, 1.0, 2.0, 4.0, 8.0, and 24 h post-dosing for PO). 100 μL of blood (yielding ˜50 μL of plasma) samples are taken from the animal's jugular vein and placed into micro K2EDTA tubes. Blood samples were placed on ice and centrifuged at 8000 rpm for 5 min at 4° C. to generate plasma sample within 0.5 h of collection. Brain samples were collected at 0.25 and 1 h post-dosing. All samples were stored at −20° C. The concentration of 12c in each sample was analyzed by Sundia MediTech Co., Ltd. The study and the related standard operating procedures were reviewed and approved by the Sundia Institutional Animal Care and Use Committee. The Sundia animal facility is approved with yearly inspection by the Shanghai Laboratory Animal Management Committee. All treatment assignments were blinded to investigators who performed PK assays and end point statistical analyses.
# [3] = male, Sprague-Dawley, plasma, IV 10 mg/kg
# [4] = male, Sprague-Dawley, plasma, PO 20 mg/kg
compound,measurement,setting,value
"O=C(NCCO)c1cccc2c1CCN2c1cc(Cc2cc(F)cc(C(F)(F)F)c2)ncn1 [Compound 12c, 1-(6-(3-Fluoro-5-(trifluoromethyl)benzyl)pyrimidin-4-yl)-N-(2-hydroxyethyl)indoline-4-carboxamide]","AMPH-induced horizontal activity, first 30 min after AMPH",C57/BL6 mice; 3 mg/kg IP,suppressed AMPH-induced horizontal activity
same,horizontal activity/30 min after compound injection,C57/BL6 mice; 3 mg/kg IP,suppressed horizontal activity
same,"AMPH-induced horizontal activity, first 30 min after AMPH",C57/BL6 mice; 10 mg/kg IP,suppressed AMPH-induced horizontal activity
same,horizontal activity/30 min after compound injection,C57/BL6 mice; 10 mg/kg IP,suppressed horizontal activity
same,hERG potassium channel binding activity,hERG potassium channel; 10 μM,did not show any
same,% inhibition (10 μM),"hERG potassium channel; hERG, mean percent inhibition of binding",11.04%
same,Ki,5-HT2C,> 10 µM
same,Cmax,In vivo PK in rats; [3],6730 ng/mL
same,clearance,In vivo PK in rats; [3],18.3 mL/min/kg
same,AUC(0-inf),In vivo PK in rats; [3],9030 ng·h/mL
same,Vd,"In vivo PK in rats; male, Sprague-Dawley, plasma, IV 10 mg/kg, read-out: Vss",1.5 L/kg
same,Cmax,In vivo PK in rats; [4],3410 ng/mL
same,AUC(0-inf),In vivo PK in rats; [4],13700 ng·h/mL
same,bioavailability,"In vivo PK in rats; male, Sprague-Dawley, plasma, oral, 20 mg/kg",76%
same,CL,In vivo PK in rats; IV 10 mg/kg,18.3 ± 1.7 mL/min/kg
same,CL,In vivo PK in rats; PO 20 mg/kg,25 ± 5 mL/min/kg
same,Vss,In vivo PK in rats; PO 20 mg/kg,5.5 ± 1.16 L/kg
same,F (%),"In vivo PK in rats; absolute oral bioavailability, PO 20 mg/kg vs IV 10 mg/kg",76 ± 15%
same,% inhibition (10 μM),GABAA,5.98%
same,cAMP increase in cells lacking GPR52,[1],no increase in cAMP; also recorded: did not increase cAMP
same,Emax,"human GPR52; HEK293, cAMP assay, read-out: Emax (%)",136%
same,Emax (%),human GPR52; cAMP assay,134%
same,Kp at […],[2]; 0.25 h,0.28
same,Kp at 1 h,[2]; 1 h,0.39
